Three compounds from patent US9403747B2, “Methods and compositions for treating leukemia” (Golden Biotechnology Corporation, priority 2013, dated 2016) can be followed below.

Structures are written as SMILES.

The test system of one data set is THP-1 xenograft. Briefly: THP-1 leukemia xenograft model. Format: in vivo, CB.17 SCID mice. The settings on record: 120 mg/kg PO twice per day, 5 days per week, 4 weeks. The method, then:
Six to seven weeks old male CB.17 SCID mice were purchased from BioLasco Taiwan Co., LTD. and quarantined for one week. During experiment period, 5 mice will be housed in one cage. All animals will be hosted in the Da-Hu animal facility in a 12-h light/12-h dark cycle at 19-25° C. Animals have free access to rodent pellet food and water ad libitum. The experimental protocol of animal study was reviewed and approved by the Institutional Animal Care and Use Committee, DCB. Compound 1 was diluted in olive oil to final concentrations of 12 mg/mL.
Tumor cell line: THP-1 cells (leukemia) were cultured in RPMI-1640 medium or DMEM medium which supplemented with 10% heat inactivated fetal bovine serum. The cells were cultured in tissue culture flasks in a humidified incubator at 37° C., in an atmosphere of 5% CO2 and 95% air.
The human cancer cells used for implantation were harvested during log phase growth and resuspended in phosphate buffered saline to a concentration containing 2×10^7 cells/mL of THP-1, in 0.1 mL of a 50% Matrigel solution (BD Biosciences, MA, USA). […] Volume was calculated using the formula: Tumor Volume=(w^2×l)/2 where w=width and l=length in diameter (mm) of the tumor. […]
Tumors were measured twice per week using calipers. […] The body weight change was calculated as the percentage increase in body weight compared to the initial body weight. […]

The subject of another data set is H838. In words: CCK-8 cell viability assay, H838. The class given is cell-based. The settings on record: Homo sapiens, NCI-H838, 48 h, 48 h treatment; means ± S.E.M. As for the experimental part:
Human hepatoma (HepG2, Hep3B), human lung adenocarcinoma (A549, H838), and human myelogenous leukemia (K562) cell lines were obtained from American Type Culture Collection (Rockville, Md., USA). Human prostate cancer cell lines (LNCaP and DU145), human breast carcinoma (MCF-7), human bladder carcinoma (TSGH 8301) and human pancreas adenocarcinoma (BxPC-3) were obtained from BCRC (Bioresource Collection and Research Center, Hsinchu, Taiwan). HepG2, DU145 and MCF-7 cell lines were cultured in Minimum Essential Medium Alpha (Invitrogen/Gibco BRL, Grand Island, N.Y., USA). A549 cells were cultured in Dulbecco's modified Eagle's medium (Invitrogen/Gibco BRL). […]
Cell viability was measured using Cell Counting Kit-8 (CCK-8, Enzo Life Sciences, Farmingdale, N.Y.). […] The concentration of formazan was measured with a spectrophotometer at an absorbance wavelength of 450 nm. Cell viability was expressed as a percentage of the corresponding control.
To determine whether the cytotoxic effects of Compound 1 correlate with the presence of Ras mutations, cell lines derived from human lung cancer (A549 and H838), liver cancer (HepG2 and Hep3B), and leukemia (K562 and THP-1) with wild-type Ras (H838, Hep3B, and K562) or mutant Ras (A549, HepG2, and THP-1) were used. Cell viability was measured after 48 h of Compound 1 treatment.
For orientation: Tetrazolium assays rely on reduction of a dye to a coloured formazan, in cell work by metabolically active cells.

For the next data set, the system named is Ras. Briefly: Immunoblot of unprocessed and processed Ras in cancer cell lines. The settings on record: H838 cells, 24 h. The class given is cell-based, human. As for the experimental part: FIG. 2A-C show illustrative effective results of the exemplary Compound 1 inhibiting Ras processing in cancer cell lines. (2A) A549 and H838 cells were treated with different concentrations of Compound 1 and grown under serum (10% FBS) or serum-free (no FBS) conditions for 24 h. (2B) H838, (2C) HepG2 and K562 cells were treated with different concentrations of Compound 1 and grown under serum-free (no FBS) conditions for 24 h. Whole cell lysates were then immunoblotted with a Ras antibody. A duplicate membrane was probed with a GAPDH antibody. The relative expression level of unprocessed to processed Ras was quantified by densitometry. The experiments were conducted three times. […]
FIG. 3A-C show illustrative effective results of Compound 1 inhibiting the prenylation activity of farnesyltransferase in vitro and competes with FPP within cells. […] The relative expression level of unprocessed to processed Ras was quantified by densitometry. […]
Sixty micrograms of total protein lysates measured using a Bradford assay (Sigma-Aldrich, St. Louis, Mo., USA) were resolved on 12.5% SDS-polyacrylamide gels. […] Secondary antibodies were conjugated to horseradish peroxidase, which was detected using a 3,3′-diaminobenzidine substrate kit (Vector Laboratories, Burlingame, Calif.). The immunoreactive bands were quantified by densitometry using Image-Pro Plus software (Media Cybernetics, Silver Spring, Md.). […]

`COC1=C(OC)C(O)C(C/C=C(\C)CC/C=C(\C)CCC=C(C)C)C(C)C1=O` (stereo not shown) [Compound 1, 4-hydroxy-2,3-dimethoxy-6-methyl-5-(3,7,11-trimethyldodeca-2,6,10-trienyl)cyclohex-2-enone]: the body weight entry with THP-1 xenograft is “almost no body weight changes”.
What is called IC50 is the concentration at which inhibition is half-maximal. Compound `COC1=C(OC)C(=O)C(C/C=C(\C)CC/C=C(\C)CCC=C(C)C)=C(C)C1=O` [Compound 25, 2,3-dimethoxy-5-methyl-6-((2E,6E)-3,7,11-trimethyldodeca-2,6,10-trienyl)cyclohexa-2,5-diene-1,4-dione] displayed an IC50 with H838 of 22.6 ± 6.45 µM.
As to `CC(C)=CCC/C(C)=C/CC/C(C)=C/COP(=O)(O)OP(=O)(O)O` [FPP], in the data set on Ras, the “Ras processing, agent alone” value is listed as “potentiated Ras processing”. Further, in the data set on Ras (competition assay), the “FPP concentration neutralizing the effect of Compound 1 on Ras processing” value is no less than 10 µM.
